Reference: ChEMBL document CHEMBL4613299, “Optimization of Indazole-Based GSK-3 Inhibitors with Mitigated hERG Issue and In Vivo Activity in a Mood Disorder Model” (ACS Med Chem Lett, 2020)
In brackets after ≈: the same amount, converted by molar mass.

Key:
[1] = Aqueous solubility of compound in PBS buffer at 200 uM and pH 7.4 incubated for 24 hrs under shaking condition by chromatographic analysis; assay type: physicochemical
[2] = Half life in human pooled liver microsomes at 10 uM incubated in shaking water bath measured up to 60 mins in presence of NADPH by HPLC-MS/MS analysis; assay type: ADME, Microsome
[3] = Half life in CD mouse pooled liver microsomes at 10 uM incubated in shaking water bath measured up to 60 mins in presence of NADPH by HPLC-MS/MS analysis; assay type: ADME, Microsome
[4] = Tmax in CD1 mouse at 10 mg/kg, ip measured up to 7 hrs by LC-MS/MS analysis; assay type: ADME, organism-based; conditions: in vivo
[5] = Cmax in plasma of CD1 mouse at 10 mg/kg, ip measured up to 7 hrs by LC-MS/MS analysis; assay type: ADME, organism-based; set-up: dose 10 mg/kg, route intraperitoneal
[6] = AUC (0 to t) in CD1 mouse at 10 mg/kg, ip measured up to 7 hrs by LC-MS/MS analysis; assay type: ADME, organism-based; set-up: time < 7 hr, dose 10 mg/kg, route intraperitoneal; conditions: in vivo
[7] = AUC (0 to infinity) in CD1 mouse at 10 mg/kg, ip measured up to 7 hrs by LC-MS/MS analysis; assay type: ADME, organism-based; set-up: dose 10 mg/kg, time infinity, route intraperitoneal; conditions: in vivo
[8] = Half life in CD1 mouse at 10 mg/kg, ip measured up to 7 hrs by LC-MS/MS analysis; assay type: ADME, organism-based; conditions: in vivo
[9] = Cmax in brain of CD1 mouse at 10 mg/kg, ip measured up to 7 hrs by LC-MS/MS analysis; assay type: ADME, organism-based; set-up: dose 10 mg/kg, route intraperitoneal

Structure (SMILES): O=C(NCC1CCOCC1)c1n[nH]c2ccc(-c3cncc(CO)c3)cc12
- solubility at 24 h, 200 µM [1]: 200 µM (≈ 73.3 µg/mL)
- half-life at 10 µM [2]: > 1 h
- half-life at 10 µM [3]: > 1 h
- Tmax [4]: 0.5 h
- Cmax [5]: 949 ng/mL
- AUC(0-t) at 7 h [6]: 781 ng·h/mL
- AUC(0-inf) [7]: 791 ng·h/mL
- half-life [8]: 2 h
- Cmax [9]: 21.1 ng/g
